Test results from patent US6130220A, “Sulfamide-metalloprotease inhibitors” (Syntex (USA) Inc., priority 1999, dated 2000).
Read-outs that look alike come from different tables or passages of the source.

Tests used:
[1] = system: TNF-α release from Human Monomac 6 cells; assay: Inhibition of TNF release in vitro, Monomac 6 cells, LPS/PMA; assay type: cell-based; conditions: 2 h; for inhibition at 2 µM: MONO-MAC-6, 2 μM, read-out: TNF-α % inhibition, Conc. 2 μM; for inhibition at 10 µM: MONO-MAC-6, 10 μM, read-out: TNF-α % inhibition, Conc. 10 μM
Method: The activity of compounds of this invention in inhibiting the TNF release was determined, using the a minor modification of the method described in Pradines-Figueres, A. and Raetz, C. R. H., J. Biol. Chem., 267 (32), 23261, (1992).
Human Monomac 6 cells (Ziegler-Heitbrock, H. W. L., et al., Int. J. Cancer, 41, 456, (1988)) were cultured at 37° C. in RPMI 1640 medium containing 10% fetal calf serum to a density of 1×10^5 cells/ml. 0.23 ml of these cells were placed in each well of a tissue culture plate and the cells were incubated for 15 min. The test compounds were dissolved in above mentioned medium and added and the incubation was continued for an additional 15 min. 10 μl of an lipopolysaccharide/phorbol-12-myristate-13-acetate (LPS/PMA) mixture was added such that the final concentration of lipopolysaccharide was 10 ng/ml and the final concentration of phorbol-12-myristate-13-acetate was 30 ng/ml. The cells were incubated for 2 h after which the plate was centrifuged and the medium was removed and analyzed for TNF content. The analysis was performed using a TNF Quantikine® Inmunoassay (R & D Systems, Minneapolis, Minn. 55413) by following the manufacturer's protocol.
The TNF-α inhibitory activity of test materials, i.e., the measure of the TNF-α content in the test group relative to the vehicle treated group (control group) was: […]

Collagenase-III = assay: MMP enzymatic assay, hydrolysis of MCA-Pro-Leu-Gly-Leu-DPA-Ala-Arg-NH2, Collagenase-III; assay type: biochemical; conditions: 37° C., pH 7.5, 2.5% DMSO
Method: The propeptide and catalytic domain portion of human collagenase-3 was expressed in E. Coli as an N-terminal fusion protein with ubiquitin. After purification, the catalytic domain was released by treatment with 1 mM APMA for 1 hour at 37° C., and then purified by zinc chelate chromatography.
Rat collagenase-3 was purified in active form from the culture media of uterine smooth muscle cells as described in Roswit, W. T. et al., Arch. Biochem. Biophys., 225, 285-295 (1983).
The matrix metalloprotease inhibitory activity of compounds of this invention in vitro was determined based on the hydrolysis of MCA-Pro-Leu-Gly-Leu-DPA-Ala-Arg-NH2 (Bachem, Inc.) at 37° C. as described in Knight, C. G., et al., FEBS Lett., 296, 263-266 (1992).
The matrix metalloprotease enzyme was diluted with assay buffer (50 mM Tricine pH 7.5, 200 mM NaCl, 10 mM CaCl2, and 0.005% Brij-35) containing 10 μmole of above substrate dissolved in DMSO. Compounds of the invention dissolved in DMSO or only DMSO (control samples) were added such that the final DMSO concentration in all assays was 2.5%. The fluorescence changes were monitored with a Perkin-Elmer LS-50B flourimeter using an excitation wavelength of 328 nm and an emission wavelength of 393 nm.

TNF-α = assay: Inhibition of LPS induced TNF-α production in mice in vivo; conditions: s.c. compound, LPS 50 μg/mouse i.p. 1 h later, blood after 1.5 h
Method: The activity of compounds of this invention in inhibiting the TNF-α release was determined, using a minor modification of the methods described in Zanetti, G.; Heumann, D., et. al., "Cytokine production after intravenous or peritoneal Gram-negative bacterial challenge in mice" J. Immunol., 148, 1890, (1992) and Sekut, L., Menius, J. A., et. al., "Evaluation if the significance of elevated levels of systemic and localized tumor necrosis factor in different animal models of inflammation" J. Lab. Clin. Med., 124, 813, (1994).
Female Balbic mice were anesthetized and injected subcutaneously with the test compounds dissolved in CMC vehicle or hydroxypropylmethyl cellulose based vehicle. Control animals received only the vehicle. After 1 h, LPS (50 μg/mouse, Sigma #13129, Sigma Chemical Co., St. Louis, Mo.) was injected intraperitoneally. After 1.5 h, blood was collected from the retro-rbital plexus region of the animals in a miicrotainer serum separator tube (Becton Dickinson, Cat. No. #5960, Becton Dickinson & Co., Franklin Lakes, N.J.). The sera was separated and the amount of TNF-α was determined using the EM-TNFA® kit (Endogen, Woburn, Mass.) by following the manufacturer's protocol.

[2] = system: collagen matrix of bovine nasal cartilage plugs; assay: Cartilage plug degradation in vivo (cartilage plug implant assay); conditions: female Lewis rats, implanted bovine nasal cartilage plugs, hydroxyproline content vs vehicle, 8 or 9 days
[3] = system: collagen matrix of cartilage explants; assay: Degradation of cartilage plug in vitro (hydroxyproline release); assay type: cell-based; conditions: bovine knee cartilage explants, IL-1-α 20 ng/ml, compounds at 10 to 300 nm, 21 days, hydroxyproline content vs control
Method: The ability of the compounds of this invention to inhibit the degradation of the collagen matrix (as judged by release of hydroxyproline) was determined by the cartilage plug degradation assay in vitro by following a slight modification of the method described in Spirito, S., Doughty, E., et al., "Metalloproteinase inhibitors halt collagen breakdown in IL-1 induced bovine nasal cartilage cultures" Inflamm. Res., 44, Supp. 2: S131-S132, (1995).
Cartilage explants prepared from freshly sacrificed bovine knee joints were added to the culture medium (Dubelco's modified eagle medium, Gibco #21063-001, Gibco BRL Products, Gaithersburg, Md.), without phenol red, but with HEPES, and L-glutamine and fungizone 2.5 μglml, gentamicin 50 μg/ml, penicillin 100 U/ml, and streptomycin 100 μg/ml). The cultures were stimulated with IL-1-α at a final concentration of 20 ng/ml. Compounds of Formula (I), were added at concentrations between 10 and 300 nm in DMSO. The control samples contained only IL-1-α. The cultures were incubated at 37° C. in an atmosphere of air with 6% CO2 for 21 days during which time the medium was changed twice/week. The cartilage plugs were removed, hydrolyzed and the hydroxyproline content was determined. The MMP inhibitory activity of test materials is the measure of the hydroxyproline content in the test group relative to the vehicle treated group (control group).

Collagenase-I = target: T1, Collagenase-I (Homo sapiens, UniProt P03956); assay: MMP enzymatic assay, hydrolysis of MCA-Pro-Leu-Gly-Leu-DPA-Ala-Arg-NH2, Collagenase-I; assay type: biochemical
T1 construct: the collagenase-1 catalytic domain was released by treatment with 1 mM of aninophenylmercuric acetate; ubiquitin (cleaved yes); made in house; host or cells: E. coli
T1 sequence (P03956 100-269 limits assumed): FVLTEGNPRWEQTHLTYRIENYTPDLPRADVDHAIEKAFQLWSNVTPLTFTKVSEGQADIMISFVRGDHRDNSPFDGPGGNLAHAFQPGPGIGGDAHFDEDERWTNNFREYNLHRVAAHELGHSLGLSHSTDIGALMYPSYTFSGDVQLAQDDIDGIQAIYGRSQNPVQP

[4] = 37° C., pH 7.5, 2.5% DMSO; read-out: Collagenase-I IC50

| Compound | IC50 (Collagenase-III) | inhibition at 2 µM [1] | TNF-α % inhibition (TNF-α) | % protection [2] | % protection [3] | also measured |
| --- | --- | --- | --- | --- | --- | --- |
| CC(C)[C@@H](NS(=O)(=O)N1CCN(c2ccc(Cl)cn2)CC1)C(=O)NO [compound 50, N-hydroxy-2-(R)-{[4-(5-chloropyridin-2-yl)piperazine-1-sulfonyl]amino}-3-methylbutyramide] | 1.3 nM | – | – | 70% | 71% | inhibition at 10 µM [1]: < 15% |
| CC(C)[C@@H](NS(=O)(=O)N1CCN(c2ccc(C(F)(F)F)cn2)CC1)C(=O)NO [compound 60] | – | – | – | – | 89% | – |
| CC(C)[C@@H](NS(=O)(=O)N1CCC(Oc2ccc(Cl)cn2)CC1)C(=O)NO [compound 100, N-hydroxy-2-(R)-{[4-(5-chloropyridin-2-yloxy)piperidine-1-sulfonyl]amino}-3-methybutyramide] | – | – | – | 40% | 68% | – |
| O=C(NO)[C@H](CSc1ccccc1)NS(=O)(=O)N1CCN(c2ccc(Cl)cn2)CC1 [compound 106, N-hydroxy-2-(R)-{[4-(5-chloropyridin-2-yl)piperazine-1-sulfonyl]amino}-3-(phenylthio)propionamide] | – | – | – | – | – | IC50 (Collagenase-I; [4]): 223 nM; inhibition at 10 µM [1]: 41% |
| O=C(NO)[C@H]1CCCCN1S(=O)(=O)N1CCC(c2c[nH]c3c(F)c(F)c(F)c(F)c23)CC1 [compound 299, N-hydroxy-1-[4-(4,5,6,7-tetrafluoroindol-3-yl)piperdine-1-sulfonyl]piperidine-2-(R)-carboxamide] | 410 nM | 90% | 52% | – | – | IC50 (Collagenase-I; [4]): > 50000 nM |
| N#Cc1ccc2[nH]cc(C3CCN(S(=O)(=O)N4CCN(C(=O)N5CCOCC5)C[C@@H]4C(=O)NO)CC3)c2c1 [compound 321, N-hydroxy-4-(morpholin-4-ylcarbonyl)-1-[4-(5-cyanoindol-3-yl)piperdine-1-sulfonyl]piperazine-2-(R)-carboxamide] | – | 93% | 50% | – | – | – |
| CC(C)[C@@H](NS(=O)(=O)N1CCN(c2ccc(OCc3ccncc3)cc2)CC1)C(=O)O [compound 413, 2-(R)-{[4-(pyridin-4-ylmethyloxyphenyl)piperazine-1-sulfonyl]amino}-3-methylbutyric acid] | – | – | – | – | – | IC50 (Collagenase-I; read-out: Collagenase-I IC50; 37° C., pH 7.5, 2.5% DMSO): 9300 nM |

Now from value to compound, other results behind:

| IC50 (Collagenase-III) | Compound | inhibition at 2 µM [1] | TNF-α % inhibition (TNF-α) | % protection [2] | % protection [3] | also measured |
| --- | --- | --- | --- | --- | --- | --- |
| 0.13 nM | O=CN1CCN(S(=O)(=O)N2CCC(C(=O)c3ccc(Cl)cc3)CC2)C(C(=O)NO)C1 (racemic) [compound 262, N-hydroxy-1-[4-(4-chlorobenzoyl)piperidine-1-sulfonyl]-4-formylpiperazine-2-(RS)-carboxamide] | 90% | 50% | – | – | – |
| 2.6 nM | CC(C)[C@@H](NS(=O)(=O)N1CCN(c2ccc(Cl)cc2)CC1)C(=O)NO [compound 51, N-hydroxy-2-(R)-{[4-(4-chlorophenyl)piperazine-1-sulfonyl]amino}-3-methylbutyramide] | – | – | 45% | 35% | – |
| 0.18 nM | CC(C)[C@@H](NS(=O)(=O)N1CCC(Oc2ccc(Cl)cc2)CC1)C(=O)NO [compound 59, N-hydroxy-2-(R)-{[4-(4-chlorophenoxy)piperidine-1-sulfonyl]amino}-3-methylbutyramide] | – | – | 58% | 54% | – |
| 0.73 nM | CC(C)[C@@H](NS(=O)(=O)N1CCN(c2ccc(OCc3ccccc3)cc2)CC1)C(=O)NO [compound 74, N-hydroxy-2-(R)-{[4-(4-benzyloxyphenyl)piperazine-1-sulfonyl]amino}-3-methylbutyramide] | – | – | 46% | – | – |
| 0.073 nM | CC(C)[C@@H](NS(=O)(=O)N1CCC(Oc2ccc(F)cc2)CC1)C(=O)NO [compound 179, N-hydroxy-2-(R)-{[4-(4-fluorophenoxy)piperidine-1-sulfonyl]amino}-3-methylbutyramide] | – | – | 63% | – | inhibition at 10 µM [1]: < 15% |
| 0.063 nM | O=C(c1ccc(Cl)cc1)C1CCN(S(=O)(=O)N2CCCC[C@@H]2C(=O)NO)CC1 [compound 242, N-hydroxy-1-[4-(4-chlorobenzoyl)piperidine-1-sulfonyl]piperidine-2-(R)-carboxamide] | – | – | – | 27% | inhibition at 10 µM [1]: 85% |
| 340 nM | N#Cc1ccc2[nH]cc(C3CCN(S(=O)(=O)N4CCCC[C@@H]4C(=O)NO)CC3)c2c1 [compound 294, N-hydroxy-1-[4-(5-cyanoindol-3-yl)piperidine-1-sulfonyl]piperidine-2-(R)-carboxamide] | 97% | 90% | – | – | – |
| 500 nM | CN(C)C(=O)N1CCN(S(=O)(=O)N2CCC(c3c[nH]c4c(F)c(F)c(F)c(F)c34)CC2)[C@@H](C(=O)NO)C1 [compound 309, N-hydroxy-4-(N,N-dimethylaminocarbonyl)-1-[4-(4,5,6,7-tetrafluoroindol-3-yl)piperidine-1-sulfonyl]piperazine-2-(R)-carboxamide] | 94% | 46% | – | – | – |
